Test results from a melting point compilation (Tetko et al.; mined from patent text by program, amines drawn as free bases though some values may be those of a salt).

Row | melting point | SMILES
1 | 167 °C | O=C1CNN(Cc2ccc(Cl)cc2Cl)C(=O)N1
2 | 226 °C | N#Cc1ccc(N2CCN(Cc3cnc4c(c3)NC(=O)[C@@H]3CCCN43)CC2)c(F)c1
3 | 142 to 145 °C | CS(=O)(=O)c1ccccc1NC(=O)c1ccccc1O
4 | 172 to 174 °C | C[C@@H]1C[C@H](C)CN(C(=O)[C@@H]2Cc3ccccc3N2c2nccs2)C1
5 | 160 to 162 °C | Cn1ncnc1COc1nc2c(cc1-c1cccs1)nnn2-c1ccccc1F
6 | 178 to 179 °C | CS(=O)(=O)N1CCC(C(CS(=O)(=O)c2ccc(Oc3ccc(OC(F)(F)F)cc3)cc2)N(O)C=O)CC1 (configuration not stated)
7 | 224 to 226 °C | Cc1[nH]c(=S)n(Nc2ccccc2)c1-c1ccccc1
8 | 192 to 193 °C | CCNC(=O)C=Cc1ccc(C(=C(CC)c2ccccc2)c2ccccc2)cc1
9 | 146 to 148 °C | O=C(Nc1ccc(Nc2ccccc2)cc1)OCCc1ccc([N+](=O)[O-])cc1
10 | 105 to 106 °C | O=C(c1nc2ccc(O)cc2[nH]1)N1CCC(=Cc2ccc(F)cc2)CC1
11 | 95 to 95.8 °C | CCCCCS(=O)(=O)NC(=O)CCc1ccc(OCCCOCCOC)cc1Oc1ncc(C(F)(F)F)cc1Cl
12 | 180 to 183 °C | O=Cc1c2ccccc2c(Cl)c2cccc(Cl)c12
13 | 168 to 169 °C | COC(=O)COc1ccc2cc(CNC(=O)c3cc(-c4ccc(Cl)cc4)oc3C)ccc2c1
14 | 121 to 122 °C | COC(=O)C(C)(C)C(=O)Oc1ccc(C(=O)c2ccccc2)cc1
15 | 161 to 163 °C | c1ccc(CN2CCc3[nH]c4cccc(-c5ccccc5)c4c3CC2)cc1
16 | 67 °C | COc1cc(Br)cc2c1OCCC2
17 | 85 to 89 °C | CC(=O)OC1CSC(Oc2cccnc2C(=O)N(C)C)C(OC(C)=O)C1OC(C)=O (configuration not stated)
18 | 194 to 197 °C | Cc1cccc(OC(=O)C(=O)c2c[nH]c3ccccc23)c1
19 | > 400 °C | O=C1NC(c2cccs2)=C2C(=O)NC(c3cccs3)=C12
20 | 194 °C | CC1(C)Cc2c(N)ccc(O)c2O1
21 | 200 to 208 °C | CN(C)C(=O)c1cccnc1S
22 | 185 to 186 °C | Cn1ccnc1C(O)(c1ccccc1)c1ccc(Cl)cc1 (configuration not stated)
23 | 224 to 227 °C | CC(=O)c1sc(Nc2cc[nH]n2)nc1C
24 | 115 to 117 °C | COC(=O)C(Oc1nc(OC)cc(OC)n1)C(C)(OCc1ccccc1)c1ccccc1 (configuration not stated)
25 | 170 to 172 °C | Cn1cc(C2CCC3(CC2)OCCO3)c2cc(C#N)ccc21
26 | 48 to 50 °C | O=[N+]([O-])c1cc(F)cc2c1OCCC2
27 | 268 °C | Cn1c(N)nc2cc(CN3CCN(C(c4ccccc4)c4ccccc4)CC3)ccc21

Row | melting point | SMILES
28 | 48 °C | CCOC(=O)CCc1ccccc1CNC(=O)C1Cc2ccccc2N1S(=O)(=O)c1ccc(-c2cccc(C(F)(F)F)c2)cc1 (configuration not stated)
29 | > 300 °C | CCn1c(=O)c2[nH]c(/C=C/c3ccc(F)c(Br)c3)nc2n(CC)c1=O
30 | 250 to 253 °C | CSc1ncc2cc(-c3c(Cl)cccc3Cl)c(N)nc2n1
31 | 130 to 131 °C | Cc1cc(SCc2ccc(OC3CCc4cc(Cl)ccc43)cc2)ccc1OCC(=O)O (configuration not stated)
32 | 73 to 75 °C | COCCn1cc(-c2ccccc2)n(C(C)=O)c1=O
33 | 93 to 98 °C | CCCCCN(CCC12CC3CC(CC(C3)C1)C2)C(=O)NCCC(C)c1ccncc1 (configuration not stated)
34 | 134 to 136 °C | CC(C)CCC1(c2ccccc2)CC=CC(=O)O1 (configuration not stated)
35 | 198 to 202 °C | N#Cc1ccc(-c2ccc(S(=O)(=O)NCc3ccncc3)cc2)cc1
36 | 209 to 210 °C | COC(=O)Cn1c(=O)sc2cc(Br)c(Cl)cc21
37 | 204 °C | O=C(Nc1cc(Cl)ccc1S(=O)(=O)c1ccccc1)N[C@@H](Cc1ccc(NC(=O)c2c(Cl)cncc2Cl)cc1)C(=O)O
38 | 104 to 105 °C | Cc1c(NC(=O)c2ccc(OCc3ccccc3F)cc2)ccc2cc(CN3CCCC3)cnc12
39 | 89.7 to 90.1 °C | COc1ccc(C(=O)c2ccc(F)cc2)c(F)c1
40 | 154 to 155 °C | CC(C)C(C)(C#N)NC(=O)c1ccccc1C(=O)O (configuration not stated)
41 | 108 to 110 °C | CCOC(=O)C1CCC(=C(C#N)C(=O)c2ccc(Cl)cc2)N1 (configuration not stated)
42 | 90 to 92 °C | CN1CCN(c2ccc(C(=O)NCCCCCCCCCO[N+](=O)[O-])cn2)CC1
43 | 89 to 91 °C | O=C1OCCN1CCCn1ccnc1[N+](=O)[O-]
44 | 199 to 200 °C | N#Cc1ccc(N(Cc2ccc(OS(N)(=O)=O)c(Br)c2)n2cnnc2)cc1-c1cc2ccccc2o1
45 | 45 to 53 °C | O=C1COc2ccccc2O1
46 | 219 to 222 °C | O=S1(=O)N=CN(C2CCCCC2)c2cc(Cl)c(Cl)cc21
47 | 76 to 82 °C | C=C(CC(C)C)C(=O)NCCCCCC(N)=O
48 | 240 to 241 °C | CC(=O)Oc1ccc2cccc(O)c2n1
49 | 42 to 43 °C | COC(=O)C(O)Cc1ccc(O)cc1 (configuration not stated)
50 | 51 to 53.5 °C | O=[N+]([O-])c1cc(F)c(Cl)c(Br)c1Cl
51 | 154 to 156 °C | C=CCOc1nc2cccc(C(=O)OC)c2n1Cc1ccc(-c2ccccc2-c2nnn[nH]2)cc1
52 | 108 to 109 °C | O=S(Cc1cccs1)c1ncc(Br)cn1 (configuration not stated)
53 | 124 to 125 °C | Cc1cncn1Cc1ccc(N)cc1

Further lines, the molecule ahead of its results:

Row | SMILES | melting point
54 | CC1=C(c2ccc(C(=O)N3Cc4cccn4Cc4ccccc43)cc2C)C(C)CCC1 (configuration not stated) | 133 to 135 °C
55 | O=C(Nc1ccccc1)Nc1cc(Br)nc(Br)c1 | 237 to 239 °C
56 | Oc1c2c(nn1-c1ncccc1C(F)(F)F)CCc1ccccc1-2 | 174 to 175 °C
57 | CCC(Oc1cc(Cl)cc(Cl)c1)C(=O)NC(C)(C)C#CCOC (configuration not stated) | 103 to 104 °C
58 | Cc1nc2n(c(=O)c1CCN1CCC(C(=O)c3ccc(F)cc3)CC1)CCS2 | 166 °C
59 | COc1ccc(-c2[nH]nc3c2C(=O)c2c(NC(=O)NCc4ccc(N)cc4)cccc2-3)cc1 | > 300 °C
60 | O=C1CCCC12CCOc1ccc(F)cc12 (configuration not stated) | 49 to 51 °C
61 | COc1ccc(Nc2ccncc2)c(C(=O)N2CCCCC2)c1 | 176 to 178 °C
62 | CCOC(=O)c1cc(CC)sc1Nc1ccccc1[N+](=O)[O-] | 66 to 68 °C
63 | COC(=O)c1cc(C(C)=O)ccc1OC | 72 to 74 °C
64 | CNC(=O)Sc1ncc(Cl)cn1 | 115 °C
65 | Cc1ccccc1CC(=NC#N)NC(NC(=O)Cc1ccc(C#N)cc1)C(C)(C)C (configuration not stated) | 199 to 201 °C
66 | COc1ccc(C2c3c(C)c(NC(=O)CC(C)(C)C)c(C)c(C)c3OC2(C)C)cc1 (configuration not stated) | 175 to 176 °C
67 | CS(=O)(=O)c1ccc(-c2sc(-c3ccccc3Cl)nc2-c2ccccc2F)cc1 | 163 to 166 °C
68 | CCN1CCCC1CNC(=O)c1cc(NS(N)(=O)=O)c(C)cc1OC (configuration not stated) | 140 to 141 °C
69 | COc1cccc([C@H]2O[C@H](CC(=O)O)C(=O)N(CC(C)(C)CO)c3ccc(Cl)cc32)c1OC | 199 to 202 °C
70 | COc1cc(OC(C)=O)c(OC)c(CCCCCc2c(OC)c(OC(C)=O)cc(OC)c2OC(C)=O)c1OC(C)=O | 94.5 to 95 °C
71 | CC(=N)NC(=O)Nc1ccccc1 | 204 to 206 °C
72 | O=C(O)c1cnc2c(F)c(F)ccc2c1 | 275 °C
73 | CC1CCCN1CCCOc1ccc(C2CCC(O)CC2)cc1 (configuration not stated) | 80 °C
74 | Fc1ccc(-c2ncncc2CCN2CCC(c3csc4cc(F)ccc34)CC2)cc1 | 123 to 124 °C
75 | Clc1ccc2c(c1)CCn1ccnc1C2=C1CCNCC1 | 197 °C
76 | O=C1CCC(c2ccc(-c3ccc(=O)[nH]n3)cc2)=NN1 | > 250 °C
77 | Clc1ccc(Nc2nc3ccccc3c3[nH]c(C4CCCC4)nc23)cc1Cl | 114 to 115 °C
78 | C=C(C)CSc1nc2c(cc1C#N)C(=O)CCC2 | 85 to 86 °C

Row | SMILES | melting point
79 | CC(C)NC(=O)CCC(=NNC(N)=S)c1ccccc1 | 66 to 71 °C
80 | C1=COc2ccc3[nH]c4c(c3c2=C1)C=CN=CC=4 | > 177 °C
81 | CCSc1nc2c(C)sc(C(=O)O)c2n1Cc1ccc(-c2ccccc2-c2nc(=O)[nH]o2)cc1 | 144 to 147 °C
82 | O=C(Cl)C12CC(C(=O)Cl)(C1)C2 | 55 to 57 °C
83 | COc1cc(C(=O)NC=NC(=O)ON(c2ccc(C)c(NC(=O)c3ccc(C=Cc4ccccc4)cc3)c2)C(C)(C)C)cc(OC)c1OC | 166 °C
84 | Cc1noc(C)c1Cn1cc(NC(=O)Cc2ccccc2)cn1 | 106 to 108 °C
85 | c1ccc(C2(c3ccccc3)CCNCCO2)cc1 | 72 to 75 °C
86 | CN1CCN(C2=C3N=c4cc(Cl)ccc4=C3Oc3ccccc3N2C)CC1 | 187 to 188 °C
87 | O=C1C(=Cc2ccncc2)CCc2ccccc21 | 112 to 114 °C
88 | Cc1ccccc1C1CC(=O)c2c(C)n[nH]c2C1 (configuration not stated) | 205 to 207 °C
89 | CCc1ccc2c(c1)C=Cc1cc(C)ccc1C2c1cn(-c2ccnc(N(C)CC(=O)O)n2)c(=O)[nH]c1=S (configuration not stated) | 187 °C
90 | Cn1nc(N)nc1NCCCOc1ccc(CN2CCCCC2)cc1 | 104 to 105 °C
91 | CCCC(O)(CCC)c1ccc(Cl)c2nc3n(c12)CCCN3c1ccc(Cl)cc1C(F)(F)F | 200 to 202 °C
92 | CCCCCCNC1=CC(=O)c2c(OC)ccc(OC)c2C1=O | 83 to 84 °C
93 | c1ccc(Sc2cc(Sc3ccccc3)c3ccc4c(Sc5ccccc5)cc(Sc5ccccc5)c5ccc2c3c54)cc1 | 230 °C
94 | COC(=O)c1nn(C2CCCCO2)cc1NC(=O)c1ccc(C)nc1 (configuration not stated) | 142 to 143 °C
95 | CCCCCCCCCCc1c(C)c(C)c(-c2n[nH]c3cc(C(C)(C)C)nn23)c(C)c1C | 194 to 195 °C
96 | CCOC(=O)C(C)(C)Oc1ccc(OCCc2nc(-c3ccc(Br)cc3)oc2C)cc1 | 78 to 79 °C
97 | CC(C)NC(=O)CN1CCN(c2nnc(N)[nH]2)CC1 | 225 to 226 °C
98 | O=C(O)CCCc1cc2nc(Cl)ccc2n1S(=O)(=O)c1cccc(C(F)(F)F)c1 | 188 °C
99 | Cc1ccc(S(=O)(=O)Nc2ccc(C#N)cc2C#N)cc1 | 200 to 206 °C
100 | COC(=O)c1ncc(O)c2c1[nH]c1ccccc12 | 241 to 242 °C
101 | Cc1ccc2c(NN)ccnc2c1NC(=O)c1c(Cl)cccc1Cl | 202 to 204 °C
102 | C=C1c2[nH]c3ccc(OC)cc3c2CCN1C=O | 180 to 181 °C
